Source: PMC10444817, “New proapoptotic chemotherapeutic agents based on the quinolone-3-carboxamide scaffold acting by VEGFR-2 inhibition” (Scientific Reports, 2023)
Values joined by “and” are separate entries in the source; they are usually repeats but may differ in a detail not shown here. Equal values may be shown once.

Experiments:
HepG2 cells [1] = test: MTT cytotoxicity against HepG2 tumor cell line; settings: read-out: Cytotoxic activity against HepG2 cell line IC50, 48 h, average of 3 independent runs ± SE
VEGFR-2 = VEGFR-2 (Homo sapiens, UniProt P35968); test: VEGFR-2 kinase inhibition assay (Kinase-Glo MAX luminescence kit, BPS Bioscience); settings: for IC50: VEGFR-2 inhibitory activity IC50, average of 3 independent runs ± SE; for Fold increase in VEGFR-2 inhibitory activity compared to para methyl substituted derivatives 10b and 10k: 4-isopropyl vs 4-CH3 analogue
[2] = MTT cytotoxicity against THLE-2 normal liver cell line; assay type: cell-based, human; settings: human, THLE-2 normal liver epithelial cells; MTT, 48 h; measured in triplicates; read-out: CC50 cytotoxic activity against THLE-2 normal cell line
Description: (§1) The produced formazan was measured by means of the spectrophotometer ROBONIK P2000 at a wavelength of 570 nm. The Cytotoxic concentration values (CC50) of the assessed compounds were reported as the mean of three independent runs ± SE[69].

HepG2 cells [3] = settings: cited from earlier work
HepG2 cells [4] = settings: at its IC50 for 48 h; cited from earlier work
Bax [5] = tested on: Bax; design: method as in Li et al. 44; settings: ref Li et al. 44; cited from earlier work
Caspase-7 [6] = tested on: Caspase-7; design: method as in Li et al. 44; settings: ref Li et al. 44; cited from earlier work
[7] = tested on: Transformed Human Liver Epithelial-2 normal cell line (THLE-2); test: MTT cytotoxicity against THLE-2 normal liver cell line; assay type: cell-based; settings: CC50 (THLE-2) / IC50 (HepG2)
Description: as §1

HepG2 cells [8] = test: Cell cycle analysis by DNA flow cytometry; assay type: cell-based, human; settings: HepG2, 48 h at IC50 concentration; frequency of cells, triplicate ± SD
Description: DNA flow cytometry was used to analyze the cell cycle kinetics of HepG2 cancer cells when pre-treated for 48 h with compound 10i at its IC50 concentration. Non-treated HepG2 cells were considered as negative control.
The assay was performed as previously mentioned. In brief, HepG2 cells were pre-incubated with compound 10i at its IC50 concentration for 48 h. Then, about 10^5 cells were attained by trypsinization and washed with phosphate buffer saline (PBS). This was followed by a resuspension step with 60% ice-cold ethanol and incubation till fixation occurs. The fixed cells were washed again and resuspended in a buffer that included 50 μg/mL RNAase A and 10 μg/mL propidium iodide. Finally, cells were incubated at 37 °C in the dark for 20 min and analyzed for the cell cycle kinetics using flow cytometry where FL2 (λex/em 535/617 nm) was used as the signal detector (ACEA Novocyt flowcytometer, ACEA Biosciences Inc., San Diego, CA, USA). A query of 12,000 events was recommended for each sample. ACEA NovoExpress software (ACEA Biosciences Inc., San Diego, CA, USA) was used for analysis.

VEGFR-2 gene = test: RT-qPCR of VEGFR-2 gene expression in HepG2 cells; assay type: cell-based, human; settings: HepG2, 48 h at IC50 concentration; normalized to β-actin
Description: RT-qPCR was performed to assess the relative normalized gene expression of VEGFR-2 gene in HepG2 cancer cells when pre-treated for 48 h with compound 10i at its IC50 concentration utilizing non-treated HepG2 cells as negative control.
Total RNA was isolated from both 10i-treated and untreated HepG2 cell line pellets using Qiagen RNeasy Mini kit Cat# No. 74104 according to the manufacturer’s guidelines. Then, quantification and quality assessment of the isolated RNA samples were determined by the Nanodrop spectrophotometer at A230, A260 and A280.
cDNA synthesis was performed for RNA using the Promega cDNA Synthesis AMV Reverse Transcriptase Kit (cat# M5108) according to the manufacturer’s instructions. The cDNA synthesis was performed on Bio-Rad 100 Thermal cycler.
Primers for the VEGFR-2 gene were designed and synthesized followed by primer validation and optimization of PCR amplification conditions. RT-qPCR expression analysis for the required genes (ß-actin and VEGFR-2) has been done using the Qiagen Quanti Nova SYBR Green PCR Kit (cat # 208052).

Bax [9] = test: Western blotting of Bax protein expression in HepG2 cells; assay type: cell-based, human; settings: HepG2, 48 h at IC50 concentration; normalized to β-actin
Description: (§2) Western blotting was performed to assess the relative normalized protein expression of the apoptotic proteins Bax and Caspase-7 in HepG2 cancer cells when pre-treated for 48 h with compound 10i at its IC50 concentration in comparison to non-treated HepG2 cells. […] The current findings provide strong evidence for the positive apoptotic activity of compound 10i in HepG2 cells that accompanies its inhibitory activity on cell proliferation.
(§3) Cells were harvested and washed with phosphate buffer saline (PBS). The cells were then lysed in 10 mM Tris–HCl, 100 mM NaCl, 0.5% Triton X-100, pH 7.6 with EDTA-free Protease Inhibitor Cocktail. This was followed by a centrifugation step at 13,000g for 20 min at 4 °C and direct transfer to sodium dodecyl sulfate–polyacrylamide gel (SDS–PAGE). Western blot analysis was performed using primary antibodies against the target proteins and HRP-conjugated secondary antibodies (Table 12). The chemiluminescence reaction was performed using the ECL western blot HRP substrate (Pierce, Thermo Fisher Scientific). Finally, densitometric quantification of Western blot protein bands were performed with IMAGEJ Software.

Caspase-7 [10] = test: Western blotting of Caspase-7 protein expression in HepG2 cells; assay type: cell-based, human; settings: HepG2, 48 h at IC50 concentration; normalized to β-actin
Description: as §2, §3

Chain of VEGFR-2 (P35968 20-1356): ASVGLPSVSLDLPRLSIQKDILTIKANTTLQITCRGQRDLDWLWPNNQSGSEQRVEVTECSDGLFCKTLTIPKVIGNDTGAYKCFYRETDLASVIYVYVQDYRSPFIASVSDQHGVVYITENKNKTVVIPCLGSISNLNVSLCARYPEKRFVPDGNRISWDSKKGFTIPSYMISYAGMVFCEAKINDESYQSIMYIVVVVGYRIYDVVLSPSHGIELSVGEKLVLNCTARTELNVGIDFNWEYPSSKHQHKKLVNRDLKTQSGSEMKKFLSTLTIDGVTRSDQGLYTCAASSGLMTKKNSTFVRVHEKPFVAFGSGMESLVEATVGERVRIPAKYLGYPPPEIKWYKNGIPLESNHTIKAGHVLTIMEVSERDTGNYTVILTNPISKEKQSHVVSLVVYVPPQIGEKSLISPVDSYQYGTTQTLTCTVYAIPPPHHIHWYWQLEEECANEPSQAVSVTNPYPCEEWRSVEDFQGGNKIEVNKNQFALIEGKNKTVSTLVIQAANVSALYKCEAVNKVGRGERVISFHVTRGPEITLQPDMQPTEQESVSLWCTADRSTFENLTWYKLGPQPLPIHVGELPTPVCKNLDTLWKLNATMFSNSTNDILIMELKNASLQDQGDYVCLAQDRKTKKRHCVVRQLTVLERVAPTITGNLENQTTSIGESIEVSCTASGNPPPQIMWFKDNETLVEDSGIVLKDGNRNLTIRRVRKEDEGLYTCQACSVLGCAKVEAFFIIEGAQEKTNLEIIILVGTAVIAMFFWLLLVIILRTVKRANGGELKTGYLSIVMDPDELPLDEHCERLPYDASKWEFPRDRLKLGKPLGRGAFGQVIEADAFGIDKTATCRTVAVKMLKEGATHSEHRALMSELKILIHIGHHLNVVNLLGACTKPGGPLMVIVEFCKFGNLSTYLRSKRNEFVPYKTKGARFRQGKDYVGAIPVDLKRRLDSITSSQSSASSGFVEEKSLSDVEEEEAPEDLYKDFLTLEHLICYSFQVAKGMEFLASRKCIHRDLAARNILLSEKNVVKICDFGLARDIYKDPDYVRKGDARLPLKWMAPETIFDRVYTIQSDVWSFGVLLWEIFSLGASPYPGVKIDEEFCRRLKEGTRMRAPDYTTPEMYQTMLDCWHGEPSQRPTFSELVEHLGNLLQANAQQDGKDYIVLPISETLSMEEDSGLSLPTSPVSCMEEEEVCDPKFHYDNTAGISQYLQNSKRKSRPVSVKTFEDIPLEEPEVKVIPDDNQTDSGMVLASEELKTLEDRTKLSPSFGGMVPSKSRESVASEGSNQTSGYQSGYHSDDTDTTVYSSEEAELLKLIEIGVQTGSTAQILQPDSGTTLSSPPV

Row | melting point | IC50 (VEGFR-2) | SMILES | IC50 (HepG2 cells [1]) | other results
1 | > 300 °C | 69 ± 0.02 nM | Cc1ccccc1NC(=O)Nc1ccc(NC(=O)c2c[nH]c3ccc(Cl)cc3c2=O)cc1 [Compound 10d, 6-Chloro-4-oxo-N-(4-(3-(o-tolyl)ureido)phenyl)-1,4-dihydroquinoline-3-carboxamide] | 1070 ± 60 nM | –
2 | > 300 °C | 197 nM and 179 nM | O=C(Nc1ccc(F)cc1)Nc1ccc(NC(=O)c2c[nH]c3ccc(Cl)cc3c2=O)cc1 [Compound 10e, 6-Chloro-N-(4-(3-(4-fluorophenyl)ureido)phenyl)-4-oxo-1,4-dihydroquinoline-3-carboxamide] | 880 ± 50 nM | –
3 | > 300 °C | 937 ± 0.04 nM | O=C(Nc1ccc(NC(=O)c2c[nH]c3ccc(Cl)cc3c2=O)cc1)Nc1ccc2ncsc2c1 [Compound 10h, N-(4-(3-(Benzo[d]thiazol-6-yl)ureido)phenyl)-6-chloro-4-oxo-1,4-dihydroquinoline-3-carboxamide] | 14900 ± 520 nM | Fold decrease in VEGFR-2 inhibitory activity (VEGFR-2; benzothiazole derivative, comparator not named): about 5.5 fold
4 | > 300 °C | 169 ± 0.01 nM | Cc1cccc(NC(=O)Nc2ccc(NC(=O)c3c[nH]c4ccc(Cl)cc4c3=O)cc2)c1 [Compound 10c, 6-Chloro-4-oxo-N-(4-(3-(m-tolyl)ureido)phenyl)-1,4-dihydroquinoline-3-carboxamide] | 4140 ± 250 nM | –
5 | > 300 °C | 317 ± 0.01 nM | Cc1cccc(NC(=O)Nc2ccc(NC(=O)c3c[nH]c4ccc(F)cc4c3=O)cc2)c1 [Compound 10l, 6-Fluoro-4-oxo-N-(4-(3-(m-tolyl)ureido)phenyl)-1,4-dihydroquinoline-3-carboxamide] | 14200 ± 820 nM | –
6 | > 300 °C | 2226 ± 0.09 nM | Cc1ccc(NC(=O)Nc2ccc(NC(=O)c3c[nH]c4ccc(F)cc4c3=O)cc2)cc1 [Compound 10k, 6-Fluoro-4-oxo-N-(4-(3-(p-tolyl)ureido)phenyl)-1,4-dihydroquinoline-3-carboxamide] | 34200 ± 2060 nM | –
7 | > 300 °C | 340 ± 0.01 nM | O=C(Nc1ccccc1)Nc1ccc(NC(=O)c2c[nH]c3ccc(F)cc3c2=O)cc1 [Compound 10j, 6-Fluoro-4-oxo-N-(4-(3-phenylureido)phenyl)-1,4-dihydroquinoline-3-carboxamide] | 41900 ± 2520 nM | –
8 | > 300 °C | 578 ± 0.03 nM | Cc1ccc(NC(=O)Nc2ccc(NC(=O)c3c[nH]c4ccc(Cl)cc4c3=O)cc2)cc1 [Compound 10b, 6-Chloro-4-oxo-N-(4-(3-(p-tolyl)ureido)phenyl)-1,4-dihydroquinoline-3-carboxamide] | 50800 ± 3160 nM | –
9 | > 300 °C | 97 ± 0.01 nM | CC(C)c1ccc(NC(=O)Nc2ccc(NC(=O)c3c[nH]c4ccc(F)cc4c3=O)cc2)cc1 [Compound 10p, 6-Fluoro-N-(4-(3-(4-isopropylphenyl)ureido)phenyl)-4-oxo-1,4-dihydroquinoline-3-carboxamide] | 8140 ± 470 nM | Fold increase in VEGFR-2 inhibitory activity compared to para methyl substituted derivatives 10b and 10k (VEGFR-2): more than 16 fold
10 | – | – | CNC(=O)c1cc(Oc2ccc(NC(=O)Nc3ccc(Cl)c(C(F)(F)F)c3)cc2)ccn1 [Sorafenib] | 8380 ± 500 nM | CC50 at 48 h [2]: 18500 nM; Combined apoptosis, percent cell population (HepG2 cells [3]): 6.37%; Late apoptotic phase, percent cell population (HepG2 cells [3]): 4.2%; Effect on cell cycle kinetics of HepG2 cells (HepG2 cells [4]): sequestration of cells in the PreG1 (or Sub-G1 (G0)), as well as cell growth arrest in G2/M phase; Effect on Bax expression in HepG2 cells (Bax [5]): no significant upregulation; Effect on caspase-7 expression in HepG2 cells (Caspase-7 [6]): significantly upregulate the expression of caspase-7
11 | > 300 °C | 181 ± 0.01 nM | Cc1ccccc1NC(=O)Nc1ccc(NC(=O)c2c[nH]c3ccc(F)cc3c2=O)cc1 [Compound 10m, 6-Fluoro-4-oxo-N-(4-(3-(o-tolyl)ureido)phenyl)-1,4-dihydroquinoline-3 carboxamide] | 13000 ± 750 nM | –
12 | > 300 °C | 257 ± 0.01 nM | O=C(Nc1ccc(F)cc1)Nc1ccc(NC(=O)c2c[nH]c3ccc(F)cc3c2=O)cc1 [Compound 10n, 6-Fluoro-N-(4-(3-(4-fluorophenyl)ureido)phenyl)-4-oxo-1,4-dihydroquinoline-3-carboxamide] | 2880 ± 140 nM | –
13 | > 300 °C | 138 ± 0.01 nM | O=C(Nc1ccccc1)Nc1ccc(NC(=O)c2c[nH]c3ccc(Cl)cc3c2=O)cc1 [Compound 10a, 6-Chloro-4-oxo-N-(4-(3-phenylureido)phenyl)-1,4-dihydroquinoline-3-carboxamide] | 4600 ± 280 nM | –
14 | – | 36 ± 0.01 nM | CC(C)c1ccc(NC(=O)Nc2ccc(NC(=O)c3c[nH]c4ccc(Cl)cc4c3=O)cc2)cc1 [Compound 10i, 6-Chloro-N-(4-(3-(4-isopropylphenyl)ureido)phenyl)-4-oxo-1,4-dihydroquinoline-3-carboxamide] | 1600 ± 170 nM | CC50 at 48 h [2]: 21000 nM; Selectivity index (SI) [7]: 13.13; Freq G1 (HepG2 cells [8]): ***2.067 ± 0.189; Freq G2 (HepG2 cells [8]): ***49.80 ± 1.466; Freq S (HepG2 cells [8]): ***7.920 ± 0.2117; Freq Sub-G1 (HepG2 cells [8]): ***20.80 ± 0.7102; Decrease of VEGFR-2 gene expression compared to untreated cells (VEGFR-2 gene): 84%; Induction of Bax protein expression compared to negative control (Bax [9]): up to 20 folds; Induction of Caspase-7 protein expression compared to negative control (Caspase-7 [10]): ≤ 6 folds; Fold increase in VEGFR-2 inhibitory activity compared to para methyl substituted derivatives 10b and 10k (VEGFR-2): more than 16 fold
15 | > 300 °C | 104.5 ± 0.005 nM | O=C(Nc1ccc(NC(=O)c2c[nH]c3ccc(Cl)cc3c2=O)cc1)Nc1cccc(C(F)(F)F)c1 [Compound 10f, 6-Chloro-4-oxo-N-(4-(3-(3-(trifluoromethyl)phenyl)ureido)phenyl)-1,4-dihydroquinoline-3-carboxamide] | 62000 ± 3870 nM | –
16 | > 300 °C | 1603 ± 0.06 nM | N#Cc1ccc(NC(=O)Nc2ccc(NC(=O)c3c[nH]c4ccc(Cl)cc4c3=O)cc2)cc1 [Compound 10g, 6-Chloro-N-(4-(3-(4-cyanophenyl)ureido)phenyl)-4-oxo-1,4-dihydroquinoline-3-carboxamide] | 43200 ± 2590 nM | –
17 | > 300 °C | 38 ± 0.02 nM | O=C(Nc1ccc(NC(=O)c2c[nH]c3ccc(F)cc3c2=O)cc1)Nc1cccc(C(F)(F)F)c1 [Compound 10o, 6-Fluoro-4-oxo-N-(4-(3-(3-(trifluoromethyl)phenyl)ureido)phenyl)-1,4-dihydroquinoline-3-carboxamide] | 2760 ± 100 nM | CC50 at 48 h [2]: 15200 nM; Selectivity index (SI) [7]: 5.52
